{
  "source": "paper PMC7411887",
  "about": "“New Paracyclophanylthiazoles with Anti-Leukemia Activity: Design, Synthesis, Molecular Docking, and Mechanistic Studies” (Molecules, 2020)",
  "key": {"HL-60(TB)": {"test_system": "HL-60(TB)", "test": "NCI single-dose screen (SRB)", "type": "cell-based", "conditions": "Homo sapiens; Leukemia HL-60(TB); 10^−5 M; read-out: Growth inhibition percentage", "procedure": "The methodology of the NCI anticancer screening was described in detail elsewhere (http://www.dtp.nci.nih.gov). […] Tested compounds were added to the culture at a single concentration (10^−5 M) and the cultures were incubated for 48 h. End-point determinations were made with a protein binding dye, SRB. Results for each tested compound were reported as the percentage growth of the treated cells when compared to the untreated control cells. The percentage growth was evaluated spectrophotometrically versus controls not treated with test agents. All experiments were repeated three times (Table 1).\nBriefly, the protocol was performed on 60 human tumor cell lines derived from different nine neoplastic diseases. […] If the results obtained met selection criteria, then the compound was tested again on all 60 cell lines in 5× 10-fold dilutions with the top dose being 10^−4 M or 150 μg/mL. Detailed methods are described in the Supplementary Materials related to this article. […]\non their site (http://www.dtp.nci.nih.gov). But briefly, the protocol performed at sixty human […]\nNational Cancer Institute, Bethesda, USA. If the results obtained meet selection criteria, then the […]\n10-4 molar or 150 μg/mL. Detailed methods are described in supplementary material related to […]\n2. MTT- Cytotoxicity assay method […]\nshould not exceed 10^6 cells/cm2. Each test should include a blank containing complete medium […]\nsalt solution without phenol red and serum. Add reconstituted MTT in an amount equal to 10% of the culture medium volume."}, "leukemia RPMI-8226": {"test_system": "leukemia RPMI-8226", "test": "MTT antiproliferative assay"}, "β-tubulin": {"target": "T1, β-tubulin (Homo sapiens, UniProt P07437)", "T1 construct": "endogenous in cells; host or cells: leukemia SR cell line", "T1 sequence (P07437 whole entry)": "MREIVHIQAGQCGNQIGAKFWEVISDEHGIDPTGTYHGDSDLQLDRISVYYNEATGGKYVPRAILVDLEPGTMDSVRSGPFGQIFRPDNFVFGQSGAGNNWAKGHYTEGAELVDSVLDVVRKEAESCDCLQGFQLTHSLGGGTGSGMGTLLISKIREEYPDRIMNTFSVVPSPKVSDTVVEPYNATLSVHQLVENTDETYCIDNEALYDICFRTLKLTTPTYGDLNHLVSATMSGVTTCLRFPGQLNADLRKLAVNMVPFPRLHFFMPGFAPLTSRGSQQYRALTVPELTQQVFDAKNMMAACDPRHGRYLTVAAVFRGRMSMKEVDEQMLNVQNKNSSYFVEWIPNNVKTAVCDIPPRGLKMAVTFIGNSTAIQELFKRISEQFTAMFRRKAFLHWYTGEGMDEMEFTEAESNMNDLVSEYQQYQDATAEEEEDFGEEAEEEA", "T1 sequence (P68363 whole entry partner)": "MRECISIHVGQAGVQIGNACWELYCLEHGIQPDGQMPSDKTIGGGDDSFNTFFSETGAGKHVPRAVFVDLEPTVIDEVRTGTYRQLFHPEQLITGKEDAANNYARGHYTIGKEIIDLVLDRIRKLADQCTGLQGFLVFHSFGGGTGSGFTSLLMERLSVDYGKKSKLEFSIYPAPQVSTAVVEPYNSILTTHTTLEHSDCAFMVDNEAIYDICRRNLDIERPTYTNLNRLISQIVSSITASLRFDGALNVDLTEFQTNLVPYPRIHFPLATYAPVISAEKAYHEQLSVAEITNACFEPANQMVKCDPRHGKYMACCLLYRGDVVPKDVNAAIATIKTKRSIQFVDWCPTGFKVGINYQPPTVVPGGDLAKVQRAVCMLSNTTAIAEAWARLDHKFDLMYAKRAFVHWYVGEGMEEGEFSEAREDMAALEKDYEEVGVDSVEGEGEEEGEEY", "test": "Tubulin polymerization inhibition (ELISA for TUBb, SR cell line)", "type": "cell-based", "conditions": "IC50 ± SEM", "procedure": "The in vitro kinetics of microtubule assembly was measured using an ELISA kit for TUBb (Cloud-Clone. Corp.) on the leukemia SR cell line. The compounds tested were 3a–f and colchicine. Briefly, growing cells from the SR cell line were trypsinized, counted, and seeded at the appropriate densities into 96-well microtiter plates.\n4. Tubulin polymerization inhibitory activity […]\nbind the biotin labeled antibody. […]\nspectrophotometrically at a wavelength of 450 nm ± 10 nm. The decrease of color intensity was measured as a sign for tubulin inhibition. The results were calculated as the concentration of TUBb available for antibody reaction, and the percent inhibition of TUBb was calculated for each sample as a percent of control. In vitro kinetics of microtubule assembly was measured using ELISA kit for TUBb (Cloud-Clone. Corp.) on SR cell line. Briefly, growing cells from Leukemia SR cell lines were trypsinized, counted and seeded at the appropriate densities into 96-well microtiter plates. Cells then were incubated in a humidified atmosphere at oC for 24 h. The standards, the tested compounds, and the control colchicine were diluted to designated concentrations. On the 96-well microtiter plates standard or sample was added to each well in […] and incubated at oC for 2 h. The solution was aspirated, and […] of prepared detection reagent A was added to each well. Incubation was done at oC for 2 h. After washing […] of prepared Detection Reagent B was added and incubation was continued at oC for 30 min. Five washings were done, then […] of 3,30,5,50-tetramethylbenzidine (TMB) substrate solution was added and incubated at oC for 15-25 min. Stop solution was added in […].\nOptical density (O.D.) was measured at 450 nm using micro-plate reader (Spectromax Plus 96 well plate spectrophotometer). […]\nthe treated cells compared to that of the untreated control cells.\n5. Multidrug resistance Assay\nBefore adding to wells, equilibrate the SABC working solution and TMB substrate for at least 30 […]\nWhen diluting samples and reagents, they must be mixed completely and evenly. It is recommended plotting a standard curve for each test."}, "Bcl-2": {"test_system": "Bcl-2", "test": "Bcl-2 assay on leukemia SR cell line", "type": "cell-based, human", "conditions": "for Bcl2 Concentration: ± SD", "procedure": "17. Empty the contents of the wells and wash by adding 400 μL of wash solution to every\n18. Repeat the wash 4 more times for a total of 5 washes.\n19. After the final wash, empty or aspirate the wells and firmly tap the plate on a lint free\npaper towel to remove any remaining wash buffer.\n20. Pipet 100 μL of Substrate Solution into each well.\n21. Incubate for 30 minutes at room temperature on a plate shaker at ~500 rpm.\n1. Mix all reagents thoroughly without foaming before use.\n3. Take caution not to scratch the surface of the microwells.\n5. Use the microwell strips immediately after washing or place upside down on a wet\nabsorbent paper for not longer than 15 minutes.\nPrepare standard (1:2 dilution) in duplicate ranging from 32\n8. Add 50 μL of diluted biotin-conjugate to all wells, including the blank wells.\n10. Remove plate cover and empty the wells.\n13. Remove plate cover and empty the wells.\nProceed to the next step.\navailable on a rotator set at 100 rpm. Avoid direct exposure to intense light."}, "SR cancer cell line": {"test_system": "SR cancer cell line", "test": "Mitochondrial membrane potential assay", "type": "cell-based, human"}, "[1]": {"conditions": "Homo sapiens, RPMI-8226, read-out: Cytotoxicity IC50 RPMI-8226, MTT, mean ± SD"}},
  "note": "Several values for one entry are separate records, joined by “and”; a condition that tells them apart may be missing. Identical values can stand only once. Like-named read-outs stand apart in the source and are kept apart here.",
  "data": [
    {"smiles": "C=CCN1C(=O)C(=CC(=O)OC)SC1=NNC(=O)c1cc2ccc1CCc1ccc(cc1)CC2", "note": "[Compound 3d]", "values": [
      {"measurement": "inhibition at 10 µM", "setting": "HL-60(TB)", "result": 8.16, "unit": "%"},
      {"measurement": "IC50", "setting": "leukemia RPMI-8226; [1]", "result": "17.81 ± 0.0544", "unit": "µM"},
      {"measurement": "IC50", "setting": "β-tubulin", "result": "14.8 ± 0.32", "unit": "µM"},
      {"measurement": "melting point", "result": "241 to 243", "unit": "°C"}
    ]},
    {"smiles": "COC(=O)C=C1SC(=NNC(=O)c2cc3ccc2CCc2ccc(cc2)CC3)N(Cc2ccccc2)C1=O", "note": "[Compound 3b]", "values": [
      {"measurement": "inhibition at 10 µM", "setting": "HL-60(TB)", "result": 105, "unit": "%"},
      {"measurement": "IC50", "setting": "leukemia RPMI-8226; [1]", "result": "4.62 ± 0.0459", "unit": "µM"},
      {"measurement": "IC50", "setting": "β-tubulin", "result": "8.38 ± 0.18", "unit": "µM"},
      {"measurement": "melting point", "result": "175 to 177", "unit": "°C"}
    ]},
    {"smiles": "CCN1C(=O)C(=CC(=O)OC)SC1=NNC(=O)c1cc2ccc1CCc1ccc(cc1)CC2", "note": "[Compound 3e]", "values": [
      {"measurement": "inhibition at 10 µM", "setting": "HL-60(TB)", "result": 11.6, "unit": "%"},
      {"measurement": "IC50", "setting": "leukemia RPMI-8226; [1]", "result": "3.17 ± 0.0489", "unit": "µM"},
      {"measurement": "IC50", "setting": "β-tubulin", "result": "6.61 ± 0.14", "unit": "µM"},
      {"measurement": "melting point", "result": "220 to 222", "unit": "°C"}
    ]},
    {"smiles": "COc1cc2c(c(OC)c1OC)-c1ccc(OC)c(=O)cc1[C@@H](NC(C)=O)CC2", "note": "[Colchicine, colchicine, reference compound]", "values": [
      {"measurement": "Bcl2 Concentration", "setting": "Bcl-2", "result": "4.101 ± 0.1441", "unit": "ng/mL"},
      {"measurement": "mitochondrial membrane potential % Live cells", "setting": "SR cancer cell line", "result": 65.04, "unit": "%"},
      {"measurement": "mitochondrial membrane potential ΔΨm % Apoptic cells", "setting": "SR cancer cell line", "result": 34.96, "unit": "%"},
      {"measurement": "shift in fluorescence (Δψmt) compared with control cells", "setting": "SR cancer cell line", "result": "significant results"},
      {"measurement": "IC50", "setting": "leukemia RPMI-8226; Homo sapiens, RPMI-8226, read-out: Cytotoxicity IC50 RPMI-8226", "result": "4.05 ± 0.0478", "unit": "µM"}
    ]},
    {"smiles": "COC(=O)C=C1SC(=Nc2cccnc2)N(NC(=O)c2cc3ccc2CCc2ccc(cc2)CC3)C1=O", "note": "[Compound 3c, Methyl (E)-2-((E)-3-[2.2]paracyclophanyl)amido-4-oxo-2-(pyridin-3-ylimino)-thiazolidin-5-ylidene)acetate]", "values": [
      {"measurement": "inhibition at 10 µM", "setting": "HL-60(TB)", "result": 48.6, "unit": "%"},
      {"measurement": "IC50", "setting": "leukemia RPMI-8226; [1]", "result": 9.69, "unit": "µM"},
      {"measurement": "IC50", "setting": "leukemia RPMI-8226; read-out: Cytotoxicity IC50 RPMI-8226, MTT, mean ± SD", "result": "9.96 ± 0.345", "unit": "µM"},
      {"measurement": "IC50", "setting": "β-tubulin", "result": "8.38 µM and 8.28 µM"},
      {"measurement": "melting point", "result": "262 to 264 °C (dec.)"}
    ]},
    {"smiles": "COC(=O)/C=C1/S/C(=N/NC(=O)c2cc3ccc2CCc2ccc(cc2)CC3)N(C2CC2)C1=O", "note": "[Compound 3f]", "values": [
      {"measurement": "inhibition at 10 µM", "setting": "HL-60(TB)", "result": 26.4, "unit": "%"},
      {"measurement": "melting point", "result": "180 to 182", "unit": "°C"}
    ]},
    {"smiles": "COC(=O)C=C1SC(=NNC(=O)c2cc3ccc2CCc2ccc(cc2)CC3)N(c2ccccc2)C1=O", "note": "[Compound 3a]", "values": [
      {"measurement": "inhibition at 10 µM", "setting": "HL-60(TB)", "result": 83.6, "unit": "%"},
      {"measurement": "Bcl2 Fold Change", "setting": "Bcl-2; relative to control", "result": 0.59, "unit": "fold"},
      {"measurement": "Bcl2 Concentration", "setting": "Bcl-2", "result": "5.045 ± 0.1918", "unit": "ng/mL"},
      {"measurement": "mitochondrial membrane potential % Live cells", "setting": "SR cancer cell line", "result": 68.8, "unit": "%"},
      {"measurement": "mitochondrial membrane potential ΔΨm % Apoptic cells", "setting": "SR cancer cell line", "result": 31.2, "unit": "%"},
      {"measurement": "shift in fluorescence (Δψmt) compared with control cells", "setting": "SR cancer cell line", "result": "non-significant shift"},
      {"measurement": "IC50", "setting": "leukemia RPMI-8226; [1]", "result": "1.61 ± 0.0654", "unit": "µM"},
      {"measurement": "IC50", "setting": "β-tubulin", "result": "4.97 ± 0.11", "unit": "µM"}
    ]}
  ]
}
